Measured values as given in publication PMC3625961 (Synapse (New York, N.Y.), 2011).
Positions count from the first letter of the chain named.

Legend:
CRF1 receptor [1] = target: T1, CRF1 receptor (Macaca mulatta, UniProt Q76LL8); format: binding, rhesus monkey
T1 sequence (Q76LL8 24-415): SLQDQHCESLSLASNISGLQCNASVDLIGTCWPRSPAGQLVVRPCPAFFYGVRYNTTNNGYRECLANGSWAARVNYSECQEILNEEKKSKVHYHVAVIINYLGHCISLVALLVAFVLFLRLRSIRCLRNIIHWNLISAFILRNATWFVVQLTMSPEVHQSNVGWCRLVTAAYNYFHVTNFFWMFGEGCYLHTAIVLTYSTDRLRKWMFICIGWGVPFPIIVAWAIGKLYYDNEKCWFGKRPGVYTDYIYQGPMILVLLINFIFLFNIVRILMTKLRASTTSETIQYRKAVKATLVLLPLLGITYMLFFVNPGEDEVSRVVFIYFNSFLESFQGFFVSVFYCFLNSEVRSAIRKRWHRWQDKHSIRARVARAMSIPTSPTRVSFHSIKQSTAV

CRF1 receptors = target: T2, CRF1 receptors (Rattus norvegicus, UniProt P35353); experiment: In vitro autoradiography competition with [125I]Sauvagine, rat frontal cortex; format: binding
T2 sequence (P35353 24-415): T1 sequence (Q76LL8 24-415) with H6R, S9N, A13T, I16V, M153V, G163A, I209V, Y229H, H356R

CRF2 R = CRF2 R (Rattus norvegicus, UniProt P47866); experiment: In vitro autoradiography competition with [125I]Sauvagine, rat choroid plexus; format: binding; conditions: read-out: Rat choroid plexus Ki; [125I] Sauvagine 0.1 nM; n=3
CRF1 receptor [2] = target: T1, CRF1 receptor; experiment: In vitro autoradiography with radioligand; format: binding, rhesus monkey; conditions: saturation, ROIs in monkey prefrontal/frontal cortex; n=3
P-gp = conditions: ref Kiesewetter et al., 2003; cited from earlier work
[3] = monkey frontal cortex, [125I]o-CRH

Sequence of CRF2 R (P47866 1-431 isoform P47866-2): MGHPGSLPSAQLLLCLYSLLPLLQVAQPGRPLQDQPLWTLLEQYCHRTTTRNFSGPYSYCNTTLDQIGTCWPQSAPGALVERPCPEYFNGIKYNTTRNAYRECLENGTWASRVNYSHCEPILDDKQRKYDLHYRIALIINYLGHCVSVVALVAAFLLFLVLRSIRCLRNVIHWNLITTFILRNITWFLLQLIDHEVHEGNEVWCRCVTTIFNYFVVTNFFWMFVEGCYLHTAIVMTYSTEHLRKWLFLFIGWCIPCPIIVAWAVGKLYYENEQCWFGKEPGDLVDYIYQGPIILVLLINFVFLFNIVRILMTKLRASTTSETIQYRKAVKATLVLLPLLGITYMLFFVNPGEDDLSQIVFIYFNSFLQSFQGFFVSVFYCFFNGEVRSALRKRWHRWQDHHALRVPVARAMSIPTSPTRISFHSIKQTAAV

**Q.** With `COCCN(CCOC)c1nc(C)nc2c(-c3c(OC)cc(Br)cc3OC)c(C)nn12` [4-Br-BMK-152, [8-(4-bromo-2,6-dimethoxyphenyl)-2,7-dimethylpyrazolo[1,5-α][1,3,5]triazin-4-yl]-N,N-bis-(2-methoxyethyl)amine] as the molecule, how does the “greater affinity compared to 3-Br-BMK” value (CRF1 receptor [1]; [3]) read?
**A.** 70 fold

**Q.** And the “greater affinity compared to o-CRH” value (CRF1 receptor [1]; [3])?
**A.** 4 fold

**Q.** What about the Ki (CRF1 receptor [1]; read-out: Rhesus Frontal Cortex Ki, [125I]-oCRH 0.125 nM, mean ± SD, n=3) of the same molecule?
**A.** 0.35 ± 0.05 nM

**Q.** And the “greater affinity compared to o-CRH” value (CRF1 receptors; rat frontal cortex, [125I]Sauvagine)?
**A.** 5 fold

**Q.** What about the Ki (CRF1 receptors; read-out: Rat Frontal Cortex Ki, [125I] Sauvagine 0.1 nM, mean ± SD, n=3) of the same molecule?
**A.** 0.15 ± 0.05 nM

**Q.** And the Ki (CRF2 R)?
**A.** > 1000 nM

**Q.** Which Kd (CRF1 receptor [2]) does the source give for `CC[C@H](C)[C@H](NC(=O)[C@H](CC(=O)O)NC(=O)[C@H](CC(C)C)NC(=O)[C@H](CC(C)C)NC(=O)[C@H](CCCCN)NC(=O)[C@H](CCCNC(=N)N)NC(=O)[C@H](CC(N)=O)NC(=O)[C@H](CO)NC(=O)[C@H](Cc1c[nH]cn1)NC(=O)[C@H](C)NC(=O)[C@H](CCC(N)=O)NC(=O)[C@H](CCC(N)=O)NC(=O)[C@H](C)NC(=O)[C@H](CC(C)C)NC(=O)[C@H](CCC(N)=O)NC(=O)[C@H](CC(=O)O)NC(=O)[C@H](C)NC(=O)[C@H](CCCCN)NC(=O)[C@@H](NC(=O)[C@H](CCSC)NC(=O)[C@H](CCC(=O)O)NC(=O)[C@H](CC(C)C)NC(=O)[C@@H](NC(=O)[C@H](CCC(=O)O)NC(=O)[C@H](CCCNC(=N)N)NC(=O)[C@H](CC(C)C)NC(=O)[C@H](CC(C)C)NC(=O)[C@H](Cc1c[nH]cn1)NC(=O)[C@H](Cc1ccccc1)NC(=O)[C@@H](NC(=O)[C@H](CC(C)C)NC(=O)[C@H](CC(=O)O)NC(=O)[C@H](CC(C)C)NC(=O)[C@H](CO)NC(=O)[C@@H](NC(=O)[C@@H]1CCCN1C(=O)[C@@H]1CCCN1C(=O)[C@H](CCC(=O)O)NC(=O)[C@H](CCC(N)=O)NC(=O)[C@H](CO)NC(=O)[C@@H](N)Cc1ccc(O)c(I)c1)[C@@H](C)CC)[C@@H](C)O)C(C)C)[C@@H](C)O)C(=O)N[C@@H](C)C(N)=O` [[^125I]o-CRH] here?
**A.** 0.68 ± 0.22 nM

**Q.** Which “increase in P-gp KO mice compared to WT mice” value (P-gp) does the source give for `CC(=O)O[C@H]1C(=O)[C@@]2(C)[C@H]([C@H](OC(=O)c3ccccc3)[C@]3(O)C[C@H](OC(=O)[C@H](O)[C@@H](NC(=O)c4ccccc4)c4ccccc4)C(C)=C1C3(C)C)[C@]1(OC(C)=O)CO[C@@H]1C[C@@H]2O` [paclitaxel] here?
**A.** 640%
